Measured values taken from PubChem BioAssay (NCI).
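How tested: cells in 96-well plates exposed to compound for 48 hours at five concentrations. The concentration for 50% growth inhibition is given as GI50. TGI: concentration producing complete growth inhibition.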 Where a SMILES comes first, the peptide text is derived from it. The star is where a group is joined. OBn = c1ccc(CO*)cc1

Key:
Assay in all cases: NCI tumour cell line growth inhibition, 48 h
A549 NSCLC = test system: A549 NSCLC
CCRF-CEM leukemia = test system: CCRF-CEM leukemia
HL-60(TB) leukemia = test system: HL-60(TB) leukemia
LOX IMVI melanoma = test system: LOX IMVI melanoma
MCF7 breast = test system: MCF7 breast
NCI-H226 lung = test system: NCI-H226 lung
OVCAR-8 ovarian = test system: OVCAR-8 ovarian
SK-MEL-28 melanoma = test system: SK-MEL-28 melanoma
SNB-75 CNS = test system: SNB-75 CNS
SR leukemia = test system: SR leukemia

Compound	TGI (A549 NSCLC)	TGI (CCRF-CEM leukemia)	TGI (HL-60(TB) leukemia)	TGI (LOX IMVI melanoma)	TGI (MCF7 breast)	TGI (NCI-H226 lung)	TGI (OVCAR-8 ovarian)	TGI (SK-MEL-28 melanoma)	TGI (SNB-75 CNS)	TGI (SR leukemia)	GI50 (A549 NSCLC)	GI50 (CCRF-CEM leukemia)	GI50 (HL-60(TB) leukemia)	GI50 (MCF7 breast)	GI50 (NCI-H226 lung)	GI50 (OVCAR-8 ovarian)	GI50 (SK-MEL-28 melanoma)	GI50 (SNB-75 CNS)	GI50 (SR leukemia)
CCCCCNC1=CC(=O)c2ccccc2C1=O	> 100 µM	> 100 µM	> 62.6 µM	> 57 µM	> 100 µM	> 82.5 µM	51.8 µM	> 100 µM	49.4 µM	> 100 µM									
CCn1c(SCC(=O)NNC(=S)Nc2ccc(F)cc2)nc2ccccc2c1=O	> 100 µM	> 100 µM	> 100 µM	> 100 µM	> 100 µM	> 100 µM	> 100 µM	> 100 µM	> 100 µM	> 100 µM									
Nc1nncs1	4980 µM	> 5000 µM	> 5000 µM	> 5000 µM	> 5000 µM	> 5000 µM	> 5000 µM	> 5000 µM	> 3710 µM	> 5000 µM									
CC(C)(CCCCC(C)(C)NCC1COc2ccccc2O1)NCC1COc2ccccc2O1 (stereo unspecified)	> 10 µM	> 10 µM	> 10 µM	> 10 µM	> 10 µM	> 10 µM	> 10 µM	3.66 µM	> 10 µM	> 10 µM									
CC(CCC(=O)O)[C@H]1CCC2[C@H]3C(CC(=O)[C@@]21C)[C@@]1(C)CCC(O)C[C@H]1C[C@@H]3O (stereo partly specified)	> 100 µM	> 100 µM	> 100 µM	> 100 µM	> 100 µM	> 100 µM	> 100 µM	> 100 µM	> 100 µM	> 100 µM									
COC(=O)[C@]12CSC[C@H]1C[C@H](c1ccc(N(C)C)cc1)N2	> 100 µM	> 100 µM	> 100 µM	> 100 µM	> 100 µM	> 100 µM	> 100 µM	> 100 µM	> 100 µM	> 100 µM									
CNC(=S)NNC1=NCCCCN1	> 100 µM	> 100 µM	> 100 µM	> 100 µM	> 100 µM	> 100 µM	> 100 µM	> 100 µM	> 100 µM	> 100 µM									
COc1cc(C2S/C(=C/c3ccccc3)C(=O)N2c2ccc([N+](=O)[O-])cc2)cc(OC)c1OC (stereo unspecified)	> 100 µM	> 100 µM	> 100 µM	> 100 µM	> 100 µM	> 100 µM	> 100 µM	> 100 µM	> 100 µM	> 100 µM									
C=C1CC(COc2ccc3ccc(=O)oc3c2)(c2ccccc2)OC1=O (stereo unspecified)	27.8 µM	2.7 µM	0.708 µM	2.57 µM	2.78 µM	12.4 µM	7.9 µM	6.12 µM	12.2 µM	> 31 µM									
CC1(C)OC(=O)CC12CCN(Cc1ccccc1)CC2	> 100 µM	> 100 µM	> 100 µM	> 100 µM	> 100 µM	> 100 µM	> 100 µM	> 100 µM	> 100 µM	> 100 µM									
CC(C)N(c1cc2c(cc1F)c(=O)c(C(=O)O)cn2-c1ccc(N2CCN(C)CC2)cn1)C(C)C	> 100 µM	> 100 µM	> 100 µM	> 100 µM	> 100 µM	> 100 µM	> 100 µM	> 100 µM	> 100 µM	> 100 µM									
CCOn1cc(C2=C(c3c[nH]c4ccccc34)C(=O)NC2=O)c2ccccc21	22.7 µM	19 µM		25.9 µM	1.03 µM	27.4 µM	20.3 µM	25.3 µM	34.8 µM	29.4 µM	< 0.0284 µM	0.0672 µM	< 0.0176 µM	< 0.0149 µM	1.01 µM	0.0935 µM	2.05 µM	< 0.0288 µM	0.0343 µM
CN1CCC/C1=C1\C(=O)c2cccn2C1=O	> 100 µM	> 100 µM	> 100 µM	> 100 µM	> 100 µM	> 100 µM	> 100 µM	> 100 µM	> 100 µM	> 100 µM									
NC(CCC(=O)OCc1ccccc1)C(=O)NC(CCC(=O)OCc1ccccc1)C(=O)O (stereo unspecified) (H-Glu(OBn)-Glu(OBn)-OH; configuration not given here)	> 100 µM	> 100 µM	> 100 µM	> 100 µM	> 100 µM	> 100 µM	> 100 µM	> 100 µM	> 100 µM	> 100 µM									
COc1cc(/C=N/NC2=NCCCN2)ccc1O	> 100 µM	> 100 µM	> 100 µM	> 100 µM	> 100 µM	> 100 µM	> 100 µM	> 100 µM	> 100 µM	> 100 µM									
O=C(Nc1ccccc1)C(=O)C(C(=O)c1ccccc1)C(c1ccccc1)c1ccccc1 (stereo unspecified)	> 10 µM	> 10 µM	> 10 µM	> 10 µM	> 10 µM		> 10 µM	> 10 µM	> 10 µM	> 10 µM									
COC(=O)c1nc2c3c(cccc3c1C(=O)OC)Nc1ccccc1-2	> 100 µM	> 100 µM	> 100 µM	> 100 µM	> 100 µM	> 100 µM		> 100 µM	> 100 µM	> 100 µM									
